The target of assay [1] is EGFR (Human), P00533 [T790M/L858R]. Kind of assay: Enzyme Assay.
Assay [2] deals with EGFR (human), P00533 [L858R]. Kind of assay: Enzyme Assay.
The target in assay [3] is EGFR (human), P00533 [WT].

Molecules are shown by their SMILES.

EGFR (Human), P00533 [T790M/L858R], sequence (P00533 whole entry T790M/L858R, looked up): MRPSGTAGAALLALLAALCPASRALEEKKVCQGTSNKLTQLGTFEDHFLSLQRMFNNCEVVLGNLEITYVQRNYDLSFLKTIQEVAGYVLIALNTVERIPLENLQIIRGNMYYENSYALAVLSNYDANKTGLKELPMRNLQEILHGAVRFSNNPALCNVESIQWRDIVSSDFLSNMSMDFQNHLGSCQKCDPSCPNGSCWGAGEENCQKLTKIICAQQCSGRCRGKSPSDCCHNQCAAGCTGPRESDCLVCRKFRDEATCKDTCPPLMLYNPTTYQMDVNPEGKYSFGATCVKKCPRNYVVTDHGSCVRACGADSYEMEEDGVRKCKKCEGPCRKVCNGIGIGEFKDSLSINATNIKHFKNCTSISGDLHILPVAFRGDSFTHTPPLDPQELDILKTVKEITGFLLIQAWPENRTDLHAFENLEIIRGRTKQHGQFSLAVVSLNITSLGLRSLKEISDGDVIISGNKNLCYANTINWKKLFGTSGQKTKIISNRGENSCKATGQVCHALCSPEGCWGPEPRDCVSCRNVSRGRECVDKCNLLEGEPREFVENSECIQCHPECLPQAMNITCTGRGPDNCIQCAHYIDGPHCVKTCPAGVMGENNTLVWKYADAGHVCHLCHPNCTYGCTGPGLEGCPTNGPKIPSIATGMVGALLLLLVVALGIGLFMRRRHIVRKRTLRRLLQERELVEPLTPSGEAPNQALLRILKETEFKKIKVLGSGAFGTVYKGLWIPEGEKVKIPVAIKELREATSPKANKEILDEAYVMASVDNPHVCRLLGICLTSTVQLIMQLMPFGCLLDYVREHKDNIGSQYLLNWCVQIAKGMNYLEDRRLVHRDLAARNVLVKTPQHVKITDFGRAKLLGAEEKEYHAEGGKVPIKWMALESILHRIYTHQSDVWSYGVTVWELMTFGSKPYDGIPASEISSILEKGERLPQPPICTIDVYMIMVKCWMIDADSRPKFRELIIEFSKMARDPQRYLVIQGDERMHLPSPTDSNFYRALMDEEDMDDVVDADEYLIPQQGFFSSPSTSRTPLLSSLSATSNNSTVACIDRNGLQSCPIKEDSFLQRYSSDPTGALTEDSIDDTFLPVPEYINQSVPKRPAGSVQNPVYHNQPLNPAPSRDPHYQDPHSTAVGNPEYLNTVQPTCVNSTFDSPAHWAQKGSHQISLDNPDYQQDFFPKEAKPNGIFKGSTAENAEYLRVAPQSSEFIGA
EGFR (human), P00533 [L858R], sequence (P00533 whole entry L858R, looked up): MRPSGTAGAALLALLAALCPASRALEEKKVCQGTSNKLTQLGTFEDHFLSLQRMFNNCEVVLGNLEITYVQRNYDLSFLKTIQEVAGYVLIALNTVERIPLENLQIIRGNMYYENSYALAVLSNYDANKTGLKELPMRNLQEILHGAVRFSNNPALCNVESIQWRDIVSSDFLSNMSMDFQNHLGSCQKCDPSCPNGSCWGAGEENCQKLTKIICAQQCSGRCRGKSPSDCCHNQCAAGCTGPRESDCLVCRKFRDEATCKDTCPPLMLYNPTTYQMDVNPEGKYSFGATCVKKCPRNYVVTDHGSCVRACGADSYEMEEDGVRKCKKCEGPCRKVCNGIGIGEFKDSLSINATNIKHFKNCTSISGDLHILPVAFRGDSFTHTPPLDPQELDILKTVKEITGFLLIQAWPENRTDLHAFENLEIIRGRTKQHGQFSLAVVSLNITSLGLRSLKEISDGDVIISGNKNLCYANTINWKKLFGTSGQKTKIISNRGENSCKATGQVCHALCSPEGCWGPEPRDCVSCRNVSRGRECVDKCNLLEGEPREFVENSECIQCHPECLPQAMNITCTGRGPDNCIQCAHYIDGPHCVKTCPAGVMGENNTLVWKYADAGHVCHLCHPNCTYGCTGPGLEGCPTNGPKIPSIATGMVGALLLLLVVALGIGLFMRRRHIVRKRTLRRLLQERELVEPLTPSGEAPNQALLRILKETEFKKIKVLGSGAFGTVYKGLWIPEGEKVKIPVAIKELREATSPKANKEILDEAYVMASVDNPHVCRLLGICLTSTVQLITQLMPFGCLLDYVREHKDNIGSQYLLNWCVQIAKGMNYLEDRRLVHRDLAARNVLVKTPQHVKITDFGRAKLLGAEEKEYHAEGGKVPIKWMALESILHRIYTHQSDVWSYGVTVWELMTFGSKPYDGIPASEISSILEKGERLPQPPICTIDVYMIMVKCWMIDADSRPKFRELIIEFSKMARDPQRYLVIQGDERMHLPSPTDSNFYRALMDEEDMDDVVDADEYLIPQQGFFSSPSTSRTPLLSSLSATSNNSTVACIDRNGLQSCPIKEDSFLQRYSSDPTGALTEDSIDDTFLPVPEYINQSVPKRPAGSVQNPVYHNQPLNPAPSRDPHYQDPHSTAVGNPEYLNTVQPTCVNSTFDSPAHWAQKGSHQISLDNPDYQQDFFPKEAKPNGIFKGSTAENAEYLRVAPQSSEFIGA
EGFR (human), P00533 [WT], sequence (P00533 whole entry, looked up): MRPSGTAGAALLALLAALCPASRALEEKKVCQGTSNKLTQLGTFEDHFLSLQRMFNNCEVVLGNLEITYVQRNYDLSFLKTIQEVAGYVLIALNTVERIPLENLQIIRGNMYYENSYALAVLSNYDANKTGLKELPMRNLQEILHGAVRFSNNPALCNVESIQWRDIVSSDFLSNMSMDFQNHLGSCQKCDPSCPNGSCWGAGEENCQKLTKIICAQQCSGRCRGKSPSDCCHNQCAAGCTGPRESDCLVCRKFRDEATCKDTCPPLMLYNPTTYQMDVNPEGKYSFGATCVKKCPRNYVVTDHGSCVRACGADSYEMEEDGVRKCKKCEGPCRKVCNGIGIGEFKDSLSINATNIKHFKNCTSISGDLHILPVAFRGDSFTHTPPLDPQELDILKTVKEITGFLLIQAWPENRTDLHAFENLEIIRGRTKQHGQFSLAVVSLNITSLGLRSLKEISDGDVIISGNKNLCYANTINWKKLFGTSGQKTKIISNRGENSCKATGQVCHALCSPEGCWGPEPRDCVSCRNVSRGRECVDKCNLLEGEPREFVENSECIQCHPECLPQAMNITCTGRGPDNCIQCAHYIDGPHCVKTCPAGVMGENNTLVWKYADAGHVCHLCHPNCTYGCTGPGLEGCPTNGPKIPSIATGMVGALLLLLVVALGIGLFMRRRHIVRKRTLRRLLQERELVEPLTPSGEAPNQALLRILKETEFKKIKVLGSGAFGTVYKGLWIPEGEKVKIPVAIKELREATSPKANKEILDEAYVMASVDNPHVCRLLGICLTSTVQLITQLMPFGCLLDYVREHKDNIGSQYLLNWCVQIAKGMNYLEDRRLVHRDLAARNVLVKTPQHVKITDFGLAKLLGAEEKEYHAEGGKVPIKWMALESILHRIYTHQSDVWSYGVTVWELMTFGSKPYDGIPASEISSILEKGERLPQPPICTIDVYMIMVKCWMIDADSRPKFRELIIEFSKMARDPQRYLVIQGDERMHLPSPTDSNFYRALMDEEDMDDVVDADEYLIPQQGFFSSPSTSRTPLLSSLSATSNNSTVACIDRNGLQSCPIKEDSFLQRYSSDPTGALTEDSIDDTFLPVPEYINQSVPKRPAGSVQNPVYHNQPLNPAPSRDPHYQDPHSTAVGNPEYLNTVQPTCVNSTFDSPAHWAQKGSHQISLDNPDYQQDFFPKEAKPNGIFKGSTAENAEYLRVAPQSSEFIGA

The IC50 is the concentration at which inhibition is half-maximal. High values mean weaker potency in that assay, low ones greater potency in that assay. In the case of `CN1CCN(CCOc2ccc(C(=O)N[C@@H]3[C@H]4Oc5ccc(Oc6ccnc7c6CCC(=O)N7)cc5[C@@H]34)cc2C(F)(F)F)CC1`, the IC50 in assay [1] was 32 nM; in assay [2] it was 12 nM.

In assay [3], `CCCCCCCCCCCC(=O)N[C@@H]1[C@H]2Oc3ccc(Oc4ccnc5c4CCC(=O)N5)cc3[C@@H]12` yielded an IC50 of 8.9 nM.

Turning to `Cc1cc(C(=O)N[C@@H]2[C@H]3Oc4ccc(Oc5ccnc6c5CCC(=O)N6)cc4[C@@H]23)ccc1CN1CCN(C)CC1`, the IC50 in assay [3] is 1.5 nM; in assay [1], 3.1 nM; in assay [2], 0.5 nM.

As to `CN(C)[C@H]1CCN(Cc2ccc(C(=O)N[C@@H]3[C@H]4Oc5ccc(Oc6ccnc7c6CCC(=O)N7)cc5[C@@H]34)cc2C(F)(F)F)C1`, the 50% inhibitory concentration (IC50) in assay [1] and in assay [2] was 0.3 nM in each case.

Regarding `CN1CCN(Cc2ccc(C(=O)N[C@@H]3[C@H]4Oc5ccc(Oc6ccnc7c6COC(=O)N7)cc5[C@@H]34)cc2C(F)(F)F)CC1`, the IC50 in assay [1] amounted to 0.49 nM; in assay [2], 0.29 nM.

For the molecule `CN(C)[C@@H]1CCN(Cc2ccc(C(=O)N[C@@H]3[C@H]4Oc5ccc(Oc6ccnc7c6CCC(=O)N7)cc5[C@@H]34)cc2C(F)(F)F)C1`, the IC50 worked out at 3.1 nM in assay [1] and 0.67 nM in assay [2].

As for `CN(C)C1CCN(Cc2ccc(C(=O)N[C@@H]3[C@H]4Oc5ccc(Oc6ccnc7c6CCC(=O)N7)cc5[C@@H]34)cc2C(F)(F)F)CC1`, the IC50 was found to be 0.42 nM in assay [1] and 0.27 nM in assay [2].

On to `O=C(C=Cc1cccc(C(F)(F)F)c1)N[C@@H]1[C@H]2Oc3ccc(Oc4ccnc5c4CCC(=O)N5)cc3[C@@H]12`, for which the IC50 in assay [1] came to 1140 nM; in assay [2], 68 nM.

`O=C1CCc2c(Oc3ccc4c(c3)[C@H]3[C@H](NC(=O)c5ccc(CN6CCN(CCO)CC6)c(C(F)(F)F)c5)[C@H]3O4)ccnc2N1`: the IC50 was determined as 0.76 nM in assay [1] and 0.26 nM in assay [2].

(Values after the Kinase Knowledgebase extract (Sharma et al. 2016).)
